The NIST ThermoML archive (doi:10.1016/j.jct.2010.11.007)
± gives the expanded uncertainty stated by the source.

Assay: xn = mol fraction of the nth substance listed
Conditions: Liquid; for speed of sound: Sing-around technique in a fixed-path interferometer; for mass density: Vibrating tube method

C=CC(C)(O)CCC=C(C)C (stereo unspecified) [3,7-dimethyl-1,6-octadien-3-ol] + CCCO
Conditions	mass density, 283.15 K [kg/m3]	mass density, 298.15 K [kg/m3]	mass density, 313.15 K [kg/m3]	mass density, 328.15 K [kg/m3]	speed of sound, 283.15 K [m/s]	speed of sound, 298.15 K [m/s]	speed of sound, 313.15 K [m/s]	speed of sound, 328.15 K [m/s]
101 kPa, x1 = 0.0533	–	–	–	–	–	–	1171.9 ± 0.7	1121 ± 0.7
101 kPa, x1 = 0.0551	819.82 ± 0.13	807.92 ± 0.14	795.75 ± 0.14	783.12 ± 0.15	1274.4 ± 0.8	1222.4 ± 0.7	–	–
101 kPa, x1 = 0.1051	826.23 ± 0.13	814.32 ± 0.14	802.06 ± 0.14	789.69 ± 0.15	1288.6 ± 0.8	1236 ± 0.8	1184.2 ± 0.8	1132.6 ± 0.7
101 kPa, x1 = 0.2014	836.56 ± 0.14	824.59 ± 0.15	812.16 ± 0.15	799.39 ± 0.16	1308.8 ± 0.9	1255.7 ± 0.9	1203.6 ± 0.8	1151 ± 0.8
101 kPa, x1 = 0.3032	–	832.73 ± 0.17	–	807.41 ± 0.17	–	–	–	–
101 kPa, x1 = 0.3049	845.01 ± 0.16	–	820.4 ± 0.17	–	1326.2 ± 1	1272.1 ± 1	1218 ± 1	1165.3 ± 1
101 kPa, x1 = 0.3869	850.24 ± 0.19	838.05 ± 0.19	825.47 ± 0.19	–	–	1281.3 ± 1.1	1227.7 ± 1.1	–
101 kPa, x1 = 0.3946	–	–	–	–	1336.7 ± 1.1	–	–	–
101 kPa, x1 = 0.3947	–	–	–	812.99 ± 0.2	–	–	–	1174.8 ± 1.1
101 kPa, x1 = 0.4923	855.58 ± 0.23	843.28 ± 0.23	830.75 ± 0.23	–	–	–	–	–
101 kPa, x1 = 0.4925	–	–	–	817.72 ± 0.24	–	–	–	–
101 kPa, x1 = 0.4951	–	–	–	–	1345.4 ± 1.2	1290.3 ± 1.2	1236.5 ± 1.2	1183.1 ± 1.2
101 kPa, x1 = 0.5905	859.44 ± 0.29	–	834.56 ± 0.29	–	–	–	–	–
101 kPa, x1 = 0.5917	–	847.16 ± 0.29	–	821.54 ± 0.29	1350.8 ± 1.4	1295.7 ± 1.4	1242.2 ± 1.4	1189.7 ± 1.4
101 kPa, x1 = 0.6818	–	–	–	824.42 ± 0.34	–	–	–	–
101 kPa, x1 = 0.6847	–	–	–	–	1355.2 ± 1.5	1301 ± 1.5	1247.2 ± 1.5	1193.6 ± 1.5
101 kPa, x1 = 0.6895	862.58 ± 0.35	–	837.72 ± 0.35	–	–	–	–	–
101 kPa, x1 = 0.69	–	850.31 ± 0.35	–	–	–	–	–	–
101 kPa, x1 = 0.7653	–	852.26 ± 0.41	839.66 ± 0.4	826.67 ± 0.4	–	–	1250.9 ± 1.6	1197 ± 1.6
101 kPa, x1 = 0.7685	864.67 ± 0.41	–	–	–	1359 ± 1.7	1304.8 ± 1.7	–	–
101 kPa, x1 = 0.8735	866.97 ± 0.51	854.67 ± 0.5	842.05 ± 0.49	829.08 ± 0.48	1364.2 ± 1.8	1309.4 ± 1.8	1255.2 ± 1.8	1201.2 ± 1.8
101 kPa, x1 = 0.9296	868.12 ± 0.56	855.79 ± 0.55	843.14 ± 0.54	830.17 ± 0.53	1366.3 ± 1.9	1311.8 ± 1.9	1258 ± 1.9	1204.4 ± 1.9
101 kPa, x1 = 1	869.39 ± 0.63	857 ± 0.62	844.29 ± 0.61	831.31 ± 0.6	1370.6 ± 2	1315.1 ± 2	1260.8 ± 2	1207.6 ± 2
20000 kPa, x1 = 0.0582	833.8 ± 1.1	822.8 ± 1.1	811.8 ± 1.1	800.4 ± 1.1	–	–	–	–
20000 kPa, x1 = 0.1037	839.4 ± 1.1	828.4 ± 1.1	817.4 ± 1.1	806 ± 1.1	–	–	–	–
20000 kPa, x1 = 0.1803	847.1 ± 1	836.2 ± 1	825.1 ± 1	813.6 ± 1.1	–	–	–	–
20000 kPa, x1 = 0.3087	857.5 ± 1	846.3 ± 1	834.9 ± 1	823.4 ± 1.1	–	–	–	–
20000 kPa, x1 = 0.4104	863.5 ± 1	852.3 ± 1	840.7 ± 1.1	829.1 ± 1.1	–	–	–	–
20000 kPa, x1 = 0.4994	867.6 ± 1.1	856.4 ± 1.1	844.9 ± 1.1	833.2 ± 1.1	–	–	–	–
20000 kPa, x1 = 0.5939	871.3 ± 1.1	860 ± 1.1	848.4 ± 1.1	836.7 ± 1.1	–	–	–	–
20000 kPa, x1 = 0.7117	875.1 ± 1.1	863.7 ± 1.1	852.2 ± 1.1	840.5 ± 1.1	–	–	–	–
20000 kPa, x1 = 0.7777	876.8 ± 1.1	865.5 ± 1.1	853.9 ± 1.1	842.2 ± 1.1	–	–	–	–
20000 kPa, x1 = 0.8566	878.5 ± 1.1	867 ± 1.1	855.5 ± 1.1	843.8 ± 1.1	–	–	–	–
20000 kPa, x1 = 0.9405	880.2 ± 1.2	868.8 ± 1.2	857.3 ± 1.2	845.6 ± 1.2	–	–	–	–
20000 kPa, x1 = 1	881.2 ± 1.2	869.7 ± 1.2	858.1 ± 1.2	846.4 ± 1.2	–	–	–	–
25000 kPa, x1 = 0.0582	837 ± 1.1	826.1 ± 1.1	815.4 ± 1.1	804.3 ± 1.1	–	–	–	–
25000 kPa, x1 = 0.1037	842.5 ± 1.1	831.7 ± 1.1	820.9 ± 1.1	809.7 ± 1.1	–	–	–	–
25000 kPa, x1 = 0.1803	850.1 ± 1	839.3 ± 1	828.4 ± 1.1	817.1 ± 1.1	–	–	–	–
25000 kPa, x1 = 0.3087	860.5 ± 1	849.4 ± 1.1	838.3 ± 1.1	826.9 ± 1.1	–	–	–	–
25000 kPa, x1 = 0.4104	866.4 ± 1.1	855.4 ± 1.1	844.1 ± 1.1	832.7 ± 1.1	–	–	–	–
25000 kPa, x1 = 0.4994	870.5 ± 1.1	859.5 ± 1.1	848.1 ± 1.1	836.7 ± 1.1	–	–	–	–
25000 kPa, x1 = 0.5939	874.2 ± 1.1	863 ± 1.1	851.7 ± 1.1	840.2 ± 1.1	–	–	–	–
25000 kPa, x1 = 0.7117	877.9 ± 1.1	866.7 ± 1.1	855.4 ± 1.1	843.9 ± 1.1	–	–	–	–
25000 kPa, x1 = 0.7777	879.6 ± 1.1	868.5 ± 1.1	857.1 ± 1.1	845.6 ± 1.1	–	–	–	–
25000 kPa, x1 = 0.8566	881.3 ± 1.1	870 ± 1.2	858.7 ± 1.2	847.2 ± 1.2	–	–	–	–
25000 kPa, x1 = 0.9405	883 ± 1.2	871.8 ± 1.2	860.4 ± 1.2	848.9 ± 1.2	–	–	–	–
25000 kPa, x1 = 1	884 ± 1.2	872.7 ± 1.2	861.3 ± 1.2	849.8 ± 1.2	–	–	–	–
30000 kPa, x1 = 0.0582	839.8 ± 1.1	829.3 ± 1.1	818.7 ± 1.1	807.8 ± 1.1	–	–	–	–
30000 kPa, x1 = 0.1037	845.3 ± 1.1	834.9 ± 1.1	824.3 ± 1.1	813.3 ± 1.1	–	–	–	–
30000 kPa, x1 = 0.1803	852.9 ± 1.1	842.5 ± 1.1	831.7 ± 1.1	820.7 ± 1.1	–	–	–	–
30000 kPa, x1 = 0.3087	863.2 ± 1.1	852.5 ± 1.1	841.5 ± 1.1	830.4 ± 1.1	–	–	–	–
30000 kPa, x1 = 0.4104	869.1 ± 1.1	858.4 ± 1.1	847.2 ± 1.1	836 ± 1.1	–	–	–	–
30000 kPa, x1 = 0.4994	873.2 ± 1.1	862.4 ± 1.1	851.2 ± 1.1	840 ± 1.1	–	–	–	–
30000 kPa, x1 = 0.5939	876.8 ± 1.1	866 ± 1.1	854.8 ± 1.1	843.6 ± 1.1	–	–	–	–
30000 kPa, x1 = 0.7117	880.6 ± 1.1	869.7 ± 1.1	858.5 ± 1.1	847.2 ± 1.1	–	–	–	–
30000 kPa, x1 = 0.7777	882.2 ± 1.1	871.4 ± 1.1	860.2 ± 1.1	848.9 ± 1.1	–	–	–	–
30000 kPa, x1 = 0.8566	883.9 ± 1.2	872.9 ± 1.2	861.7 ± 1.2	850.4 ± 1.2	–	–	–	–
30000 kPa, x1 = 0.9405	885.6 ± 1.2	874.7 ± 1.2	863.4 ± 1.2	852.1 ± 1.2	–	–	–	–
30000 kPa, x1 = 1	886.6 ± 1.2	875.6 ± 1.2	864.3 ± 1.2	853 ± 1.2	–	–	–	–
35000 kPa, x1 = 0.0582	842.8 ± 1.1	832.4 ± 1.1	822.1 ± 1.1	811.3 ± 1.1	–	–	–	–
35000 kPa, x1 = 0.1037	848.3 ± 1.1	837.9 ± 1.1	827.5 ± 1.1	816.7 ± 1.1	–	–	–	–
35000 kPa, x1 = 0.1803	855.7 ± 1.1	845.4 ± 1.1	834.8 ± 1.1	823.9 ± 1.1	–	–	–	–
35000 kPa, x1 = 0.3087	866 ± 1.1	855.4 ± 1.1	844.6 ± 1.1	833.6 ± 1.1	–	–	–	–
35000 kPa, x1 = 0.4104	871.9 ± 1.1	861.2 ± 1.1	850.4 ± 1.1	839.3 ± 1.1	–	–	–	–
35000 kPa, x1 = 0.4994	875.9 ± 1.1	865.2 ± 1.1	854.3 ± 1.1	843.2 ± 1.1	–	–	–	–
35000 kPa, x1 = 0.5939	879.4 ± 1.1	868.7 ± 1.1	857.8 ± 1.1	846.7 ± 1.1	–	–	–	–
35000 kPa, x1 = 0.7117	883.2 ± 1.1	872.4 ± 1.1	861.5 ± 1.1	850.4 ± 1.1	–	–	–	–
35000 kPa, x1 = 0.7777	884.9 ± 1.1	874.1 ± 1.1	863.2 ± 1.1	852.1 ± 1.2	–	–	–	–
35000 kPa, x1 = 0.8566	886.5 ± 1.2	875.6 ± 1.2	864.7 ± 1.2	853.6 ± 1.2	–	–	–	–
35000 kPa, x1 = 0.9405	888.2 ± 1.2	877.3 ± 1.2	866.4 ± 1.2	855.2 ± 1.2	–	–	–	–
35000 kPa, x1 = 1	889.2 ± 1.2	878.3 ± 1.2	867.3 ± 1.2	856.2 ± 1.3	–	–	–	–
40000 kPa, x1 = 0.0582	845.5 ± 1.1	835.4 ± 1.1	825.1 ± 1.1	814.7 ± 1.1	–	–	–	–
40000 kPa, x1 = 0.1037	851.1 ± 1.1	840.9 ± 1.1	830.7 ± 1.1	820.1 ± 1.1	–	–	–	–
40000 kPa, x1 = 0.1803	858.4 ± 1.1	848.3 ± 1.1	837.9 ± 1.1	827.2 ± 1.1	–	–	–	–
40000 kPa, x1 = 0.3087	868.6 ± 1.1	858.3 ± 1.1	847.7 ± 1.1	836.9 ± 1.1	–	–	–	–
40000 kPa, x1 = 0.4104	874.6 ± 1.1	864 ± 1.1	853.3 ± 1.1	842.4 ± 1.1	–	–	–	–
40000 kPa, x1 = 0.4994	878.5 ± 1.1	867.9 ± 1.1	857.3 ± 1.1	846.4 ± 1.1	–	–	–	–
40000 kPa, x1 = 0.5939	882.1 ± 1.1	871.5 ± 1.1	860.7 ± 1.1	849.8 ± 1.1	–	–	–	–
40000 kPa, x1 = 0.7117	885.9 ± 1.1	875.1 ± 1.1	864.4 ± 1.1	853.5 ± 1.1	–	–	–	–
40000 kPa, x1 = 0.7777	887.5 ± 1.1	876.8 ± 1.2	866.1 ± 1.2	855.1 ± 1.2	–	–	–	–
40000 kPa, x1 = 0.8566	889.1 ± 1.2	878.3 ± 1.2	867.6 ± 1.2	856.6 ± 1.2	–	–	–	–
40000 kPa, x1 = 0.9405	890.8 ± 1.2	880 ± 1.2	869.2 ± 1.2	858.2 ± 1.2	–	–	–	–
40000 kPa, x1 = 1	891.8 ± 1.3	881 ± 1.3	870.2 ± 1.3	859.2 ± 1.3	–	–	–	–
